Measured values: patent US12371454B2, “Cyclic peptide compound having Kras inhibitory action” (priority 2019, dated 2025)
Starred links: 1 amine or outer side, 2 acyl side, 3 side chain; linkers in the order of their positions; H or OH if unused. Positions of bridges follow the written chain, without caps; N, C: chain ends. Non-standard residues stand in square brackets, D forms with d. Residues, ends and D or L forms follow the SMILES beside them. *: point of attachment. hPhe(3-Cl-4-CF3) = N[C@@H](CCc1ccc(C(F)(F)F)c(Cl)c1)C(=O)O; NMePhe(4-CF3) = CN[C@@H](Cc1ccc(C(F)(F)F)cc1)C(=O)O; NMePhe(4-Me) = CN[C@@H](Cc1ccc(C)cc1)C(=O)O; NMedβ3hAla = C[C@H](CC(=O)[*:2])N(C)[*:1]; NMeGly(cPent) = CN[C@H](C(=O)O)C1CCCC1; NMeCha = CN[C@@H](CC1CCCCC1)C(=O)O; NMeChg = CN[C@H](C(=O)O)C1CCCCC1; NMeF = CN[C@@H](Cc1ccccc1)C(=O)O; NMeI = CC[C@H](C)[C@H](NC)C(=O)O; NMeD = CN[C@@H](CC(=O)O)C(=O)O; NMeL = CN[C@@H](CC(C)C)C(=O)O; NMeNle = CCCC[C@H](NC)C(=O)O; NMeNva = CCC[C@H](NC)C(=O)O; NMeV = CN[C@H](C(=O)O)C(C)C; d(β3hA) = C[C@@H](N)CC(=O)O; NMeAbu = CC[C@H](NC)C(=O)O; NMeS = CN[C@@H](CO)C(=O)O; NMeA = CN[C@@H](C)C(=O)O; Piperidide = C1CCN(*)CC1; Pyrrolidide = C1CCN(*)C1; dNMeA = CN[C@H](C)C(=O)O; Ac5c = NC1(C(=O)O)CCCC1; Aze = O=C(O)[C@@H]1CCN1; Ac4c = NC1(C(=O)O)CCC1; Sar = CNCC(=O)O; Propyl = CCC*

System: Human pancreatic cancer cell line AsPC-1
Assay: Measurement of AsPC-1 cell growth inhibition (AsPC-1 CGI)
Format: cell-based
Conditions: 96 h
Method in brief: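 AsPC-1 cells in 15% FBS RPMI-1640 were exposed to test compound for 96 hours at 37° C, with CellTiter-Glo as endpoint.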

Row | SMILES | IC50 [nM]
1 | CC[C@H](C)[C@@H]1NC(=O)[C@H](CC(C)C)N(C)C(=O)C[C@@H](C)NC(=O)[C@H](C2CCCC2)N(C)C(=O)C2(CCCC2)NC(=O)[C@@H]2CCCN2C(=O)[C@H](CCc2ccc(C(F)(F)F)c(Cl)c2)NC(=O)[C@@H](C)N(C)C(=O)[C@H](Cc2ccc(C)cc2)N(C)C(=O)[C@@H]2CCN2C(=O)[C@H](C)N(C)C1=O [Compound 1504] (cyclo([Ac5c][NMeGly(cPent)][d(β3hA)][NMeL]I[NMeA][Aze][NMePhe(4-Me)][dNMeA][hPhe(3-Cl-4-CF3)]P)) | 100 to 500
2 | CC[C@H](C)[C@@H]1NC(=O)[C@H](C)N(C)C(=O)C[C@@H](C)NC(=O)[C@H](C2CCCC2)N(C)C(=O)C2(CCCC2)NC(=O)[C@@H]2CCCN2C(=O)[C@H](CCc2ccc(C(F)(F)F)c(Cl)c2)NC(=O)CN(C)C(=O)[C@H](Cc2ccc(C(F)(F)F)cc2)N(C)C(=O)[C@@H]2CCN2C(=O)[C@H](C)N(C)C1=O [Compound 1512] (cyclo([Ac5c][NMeGly(cPent)][d(β3hA)][NMeA]I[NMeA][Aze][NMePhe(4-CF3)][Sar][hPhe(3-Cl-4-CF3)]P)) | 50 to 100
3 | CC[C@H](C)[C@@H]1NC(=O)[C@H](C)N(C)C(=O)C[C@@H](C)NC(=O)[C@H](C2CCCC2)N(C)C(=O)C2(CCCC2)NC(=O)[C@@H]2CCCN2C(=O)[C@H](CCc2ccc(C(F)(F)F)c(Cl)c2)NC(=O)CN(C)C(=O)[C@H](Cc2ccc(C)cc2)N(C)C(=O)[C@@H]2CCN2C(=O)[C@H](C)N(C)C1=O [Compound 1514] (cyclo([Ac5c][NMeGly(cPent)][d(β3hA)][NMeA]I[NMeA][Aze][NMePhe(4-Me)][Sar][hPhe(3-Cl-4-CF3)]P)) | 100 to 500
4 | CC[C@H](C)[C@@H]1NC(=O)[C@H](CC(C)C)N(C)C(=O)C[C@@H](C(=O)N2CCCCC2)N(C)C(=O)[C@H](C(C)C)N(C)C(=O)C2(CCCC2)NC(=O)[C@@H]2CCCN2C(=O)[C@H](CCc2ccc(C(F)(F)F)c(Cl)c2)NC(=O)CN(C)C(=O)[C@H](CC2CCCCC2)N(C)C(=O)[C@@H]2CCN2C(=O)[C@H](Cc2ccccc2)N(C)C1=O [Compound 1561] ([NMeL]I[NMeF][Aze][NMeCha][Sar][hPhe(3-Cl-4-CF3)]P[Ac5c][NMeV][NMeD]-Piperidide; lactam N-11) | 100 to 500
5 | CCC[C@H]1C(=O)N[C@@H]([C@@H](C)CC)C(=O)N(C)[C@@H](C)C(=O)N2CC[C@H]2C(=O)N(C)[C@@H](CC2CCCCC2)C(=O)N(C)CC(=O)N[C@@H](CCc2ccc(C(F)(F)F)c(Cl)c2)C(=O)N2CCC[C@H]2C(=O)NC2(CCCC2)C(=O)N(C)[C@@H](C(C)C)C(=O)N[C@H](C)CC(=O)N1C [Compound 1564] (cyclo([Ac5c][NMeV][d(β3hA)][NMeNva]I[NMeA][Aze][NMeCha][Sar][hPhe(3-Cl-4-CF3)]P)) | 100 to 500
6 | CC[C@H](C)[C@@H]1NC(=O)[C@H](CC(C)C)N(C)C(=O)C[C@@H](C(=O)N2CCCCC2)N(C)C(=O)[C@H](C(C)C)N(C)C(=O)C2(CCCC2)NC(=O)[C@@H]2CCCN2C(=O)[C@H](CCc2ccc(C(F)(F)F)c(Cl)c2)NC(=O)CN(C)C(=O)[C@H](CC2CCCCC2)N(C)C(=O)[C@@H]2CCN2C(=O)[C@H](CC)N(C)C1=O [Compound 1569] ([NMeL]I[NMeAbu][Aze][NMeCha][Sar][hPhe(3-Cl-4-CF3)]P[Ac5c][NMeV][NMeD]-Piperidide; lactam N-11) | 100 to 500
7 | CCCC[C@H]1C(=O)N2CC[C@H]2C(=O)N(C)[C@@H](CC2CCCCC2)C(=O)N(C)CC(=O)N[C@@H](CCc2ccc(C(F)(F)F)c(Cl)c2)C(=O)N2CCC[C@H]2C(=O)NC2(CCCC2)C(=O)N(C)[C@@H](C(C)C)C(=O)N(C)[C@H](C(=O)N2CCCCC2)CC(=O)N(C)[C@@H](CC(C)C)C(=O)N[C@@H]([C@@H](C)CC)C(=O)N1C [Compound 1596] ([NMeL]I[NMeNle][Aze][NMeCha][Sar][hPhe(3-Cl-4-CF3)]P[Ac5c][NMeV][NMeD]-Piperidide; lactam N-11) | 100 to 500
8 | CCC[C@H]1C(=O)N2CC[C@H]2C(=O)N(C)[C@@H](CC2CCCCC2)C(=O)N(C)CC(=O)N[C@@H](CCc2ccc(C(F)(F)F)c(Cl)c2)C(=O)N2CCC[C@H]2C(=O)NC2(CCCC2)C(=O)N(C)[C@@H](C(C)C)C(=O)N(C)[C@H](C(=O)N2CCCCC2)CC(=O)N(C)[C@@H](CC(C)C)C(=O)N[C@@H]([C@@H](C)CC)C(=O)N1C [Compound 1601] ([NMeL]I[NMeNva][Aze][NMeCha][Sar][hPhe(3-Cl-4-CF3)]P[Ac5c][NMeV][NMeD]-Piperidide; lactam N-11) | 100 to 500
9 | CCCC[C@H]1C(=O)N[C@@H]([C@@H](C)CC)C(=O)N(C)[C@@H](C)C(=O)N2CC[C@H]2C(=O)N(C)[C@@H](CC2CCCCC2)C(=O)N(C)CC(=O)N[C@@H](CCc2ccc(C(F)(F)F)c(Cl)c2)C(=O)N2CCC[C@H]2C(=O)NC2(CCCC2)C(=O)N(C)[C@@H](C(C)C)C(=O)N(C)[C@H](C(=O)N2CCCCC2)CC(=O)N1C [Compound 1616] ([NMeNle]I[NMeA][Aze][NMeCha][Sar][hPhe(3-Cl-4-CF3)]P[Ac5c][NMeV][NMeD]-Piperidide; lactam N-11) | 100 to 500
10 | CC[C@H](C)[C@@H]1NC(=O)[C@H](CC)N(C)C(=O)C[C@@H](C(=O)N2CCCCC2)N(C)C(=O)[C@H](C(C)C)N(C)C(=O)C2(CCCC2)NC(=O)[C@@H]2CCCN2C(=O)[C@H](CCc2ccc(C(F)(F)F)c(Cl)c2)NC(=O)CN(C)C(=O)[C@H](CC2CCCCC2)N(C)C(=O)[C@@H]2CCN2C(=O)[C@H](C)N(C)C1=O [Compound 1638] ([NMeAbu]I[NMeA][Aze][NMeCha][Sar][hPhe(3-Cl-4-CF3)]P[Ac5c][NMeV][NMeD]-Piperidide; lactam N-11) | 100 to 500
11 | CCC[C@H]1C(=O)N[C@@H]([C@@H](C)CC)C(=O)N(C)[C@@H](C)C(=O)N2CC[C@H]2C(=O)N(C)[C@@H](CC2CCCCC2)C(=O)N(C)CC(=O)N[C@@H](CCc2ccc(C(F)(F)F)c(Cl)c2)C(=O)N2CCC[C@H]2C(=O)NC2(CCCC2)C(=O)N(C)[C@@H](C(C)C)C(=O)N(C)[C@H](C(=O)N2CCCCC2)CC(=O)N1C [Compound 1639] ([NMeNva]I[NMeA][Aze][NMeCha][Sar][hPhe(3-Cl-4-CF3)]P[Ac5c][NMeV][NMeD]-Piperidide; lactam N-11) | 100 to 500
12 | CCCOC[C@H]1C(=O)N(C)CC(=O)N[C@@H](CCc2ccc(C(F)(F)F)c(Cl)c2)C(=O)N2CCC[C@H]2C(=O)NC2(CCCC2)C(=O)N(C)[C@@H](C(C)C)C(=O)N(C)[C@H](C(=O)N2CCCCC2)CC(=O)N(C)[C@@H](CC(C)C)C(=O)N[C@@H]([C@@H](C)CC)C(=O)N(C)[C@@H](C)C(=O)N2CC[C@H]2C(=O)N1C [Compound 1646] ([NMeL]I[NMeA][Aze][NMeS](Propyl)[Sar][hPhe(3-Cl-4-CF3)]P[Ac5c][NMeV][NMeD]-Piperidide; lactam N-11) | 100 to 500
13 | CC[C@H](C)[C@@H]1NC(=O)[C@H](CC(C)C)N(C)C(=O)C[C@@H](C)N(C)C(=O)[C@H](C(C)C)N(C)C(=O)C2(CCCC2)NC(=O)[C@@H]2CCCN2C(=O)[C@H](CCc2ccc(C(F)(F)F)c(Cl)c2)NC(=O)CN(C)C(=O)[C@H](CC2CCCCC2)N(C)C(=O)[C@@H]2CCN2C(=O)CN(C)C1=O [Compound 1648] (cyclo([Ac5c][NMeV][NMedβ3hAla][NMeL]I[Sar][Aze][NMeCha][Sar][hPhe(3-Cl-4-CF3)]P)) | 100 to 500
14 | CC[C@H](C)[C@@H]1NC(=O)[C@H](CC(C)C)N(C)C(=O)C[C@@H](C(=O)N(C)C)N(C)C(=O)[C@H](C(C)C)N(C)C(=O)C2(CCCC2)NC(=O)[C@@H]2CCCN2C(=O)[C@H](CCc2ccc(C(F)(F)F)c(Cl)c2)NC(=O)CN(C)C(=O)[C@H](Cc2ccc(C)cc2)N(C)C(=O)[C@@H]2CCN2C(=O)[C@H](C)N(C)C1=O [Compound 1653] ([NMeL]I[NMeA][Aze][NMePhe(4-Me)][Sar][hPhe(3-Cl-4-CF3)]P[Ac5c][NMeV][NMeD]-NMe2; lactam N-11) | 50 to 100
15 | CC[C@H](C)[C@@H]1NC(=O)[C@H](CC(C)C)N(C)C(=O)C[C@@H](C)NC(=O)[C@H]([C@@H](C)CC)N(C)C(=O)C2(CCCC2)NC(=O)[C@@H]2CCCN2C(=O)[C@H](CCc2ccc(C(F)(F)F)c(Cl)c2)NC(=O)CN(C)C(=O)[C@H](CC2CCCCC2)N(C)C(=O)[C@@H]2CCN2C(=O)[C@H](C)N(C)C1=O [Compound 1654] (cyclo([Ac5c][NMeI][d(β3hA)][NMeL]I[NMeA][Aze][NMeCha][Sar][hPhe(3-Cl-4-CF3)]P)) | 50 to 100
16 | CC[C@H](C)[C@@H]1NC(=O)[C@H](CC(C)C)N(C)C(=O)C[C@@H](C(=O)N2CCCCC2)N(C)C(=O)[C@H](CC(C)C)N(C)C(=O)C2(CCCC2)NC(=O)[C@@H]2CCCN2C(=O)[C@H](CCc2ccc(C(F)(F)F)c(Cl)c2)NC(=O)CN(C)C(=O)[C@H](CC2CCCCC2)N(C)C(=O)[C@@H]2CCN2C(=O)[C@H](C)N(C)C1=O [Compound 1657] ([NMeL]I[NMeA][Aze][NMeCha][Sar][hPhe(3-Cl-4-CF3)]P[Ac5c][NMeL][NMeD]-Piperidide; lactam N-11) | 100 to 500
17 | CC[C@H](C)[C@@H]1NC(=O)[C@H](CC(C)C)N(C)C(=O)C[C@@H](C(=O)N2CCCC2)N(C)C(=O)[C@H](C(C)C)N(C)C(=O)C2(CCCC2)NC(=O)[C@@H]2CCCN2C(=O)[C@H](CCc2ccc(C(F)(F)F)c(Cl)c2)NC(=O)CN(C)C(=O)[C@H](CC2CCCCC2)N(C)C(=O)[C@@H]2CCN2C(=O)CN(C)C1=O [Compound 1670] ([NMeL]I[Sar][Aze][NMeCha][Sar][hPhe(3-Cl-4-CF3)]P[Ac5c][NMeV][NMeD]-Pyrrolidide; lactam N-11) | 100 to 500
18 | CC[C@H](C)[C@@H]1NC(=O)[C@H](CC(C)C)N(C)C(=O)C[C@@H](C(=O)N2CCCCC2)N(C)C(=O)[C@H](C(C)C)N(C)C(=O)C2(CCC2)NC(=O)[C@@H]2CCCN2C(=O)[C@H](CCc2ccc(C(F)(F)F)c(Cl)c2)NC(=O)CN(C)C(=O)[C@H](CC2CCCCC2)N(C)C(=O)[C@@H]2CCN2C(=O)[C@H](C)N(C)C1=O [Compound 1672] ([NMeL]I[NMeA][Aze][NMeCha][Sar][hPhe(3-Cl-4-CF3)]P[Ac4c][NMeV][NMeD]-Piperidide; lactam N-11) | 100 to 500
19 | CC[C@H](C)[C@@H]1NC(=O)[C@H](CC(C)C)N(C)C(=O)C[C@@H](C(=O)N(C)C)N(C)C(=O)[C@H](C2CCCCC2)N(C)C(=O)C2(CCCC2)NC(=O)[C@@H]2CCCN2C(=O)[C@H](CCc2ccc(C(F)(F)F)c(Cl)c2)NC(=O)CN(C)C(=O)[C@H](CC2CCCCC2)N(C)C(=O)[C@@H]2CCN2C(=O)[C@H](C)N(C)C1=O [Compound 1675] ([NMeL]I[NMeA][Aze][NMeCha][Sar][hPhe(3-Cl-4-CF3)]P[Ac5c][NMeChg][NMeD]-NMe2; lactam N-11) | 20 to 50
